In patent publication US20020183519A1, “Antithrombotic carboxylic acid amides” (priority 2001, published 2002):

Target: T1, human factor Xa (Homo sapiens, UniProt P00742)
T1 construct: released from the colourless chromogenic substrate by human factor Xa; purchased Roche
Assay: Inhibition of factor Xa, enzyme-kinetic measurement with chromogenic substrate
Format: biochemical
Details: human factor Xa (Roche) 0.175 U/ml, substrate Chromozym X 200 μMol/l, pH 8.0, 37° C., 405 nm
Method: Method: Enzyme-kinetic measurement with chromogenic substrate. The quantity of p-nitroaniline (pNA) released from the colourless chromogenic substrate by human factor Xa is determined photometrically at 405 nm. It is proportional to the activity of the enzyme used. The inhibition of the enzyme activity by the test substance (in relation to the solvent control) is determined at various concentrations of test substance and from this the IC50 is calculated, as the concentration which inhibits the factor Xa used by 50%.
Material: Tris(hydroxymethyl)-aminomethane buffer (100 mmol) and sodium chloride (150 mmol), pH 8.0
Factor Xa (Roche), spec. activity: 10 U/0.5 ml, final concentration: 0.175 U/ml for each reaction mixture
Substrate Chromozym X (Roche), final concentration: 200 μMol/l for each reaction mixture
Procedure: 10 μl of a 23.5-times concentrated starting solution of the test substance or solvent (control), 175 μl of tris(hydroxymethyl)-aminomethane buffer and 25 μl of a 1.65 U/ml Factor Xa working solution are incubated for 10 minutes at 37° C. After the addition of 25 μl of Chromozym X working solution ([…]) the sample is measured in a photometer (SpectraMax 250) at 405 nm for 150 seconds at 37° C.
1. Determining the maximum increase (deltaOD/minutes) over 3 measuring points.
2. Determining the % inhibition based on the solvent control.
3. Plotting a dosage/activity curve (% inhibition vs substance concentration).
4. Determining the IC50 by interpolating the X value (substance concentration) of the dosage/activity curve at Y=50% inhibition.

T1 sequence (P00742 235-488 limits assumed): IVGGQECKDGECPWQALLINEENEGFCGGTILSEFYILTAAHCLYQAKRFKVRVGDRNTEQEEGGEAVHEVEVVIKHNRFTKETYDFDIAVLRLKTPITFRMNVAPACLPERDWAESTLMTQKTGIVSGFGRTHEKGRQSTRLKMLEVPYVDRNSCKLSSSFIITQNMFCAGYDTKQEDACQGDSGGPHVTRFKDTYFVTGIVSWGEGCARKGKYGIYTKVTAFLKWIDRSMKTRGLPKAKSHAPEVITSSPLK
T1 sequence (P00742 41-179 partner limits assumed): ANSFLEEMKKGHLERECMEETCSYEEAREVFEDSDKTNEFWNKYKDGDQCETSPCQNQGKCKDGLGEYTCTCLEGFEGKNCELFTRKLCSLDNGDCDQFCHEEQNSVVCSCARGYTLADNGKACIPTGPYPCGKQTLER

Row | Structure (SMILES) | IC50 [µM]
1 | Cc1cc(NC(=O)Cc2cc(C(=N)N)ccc2O)ccc1-n1cnc2c1CCCC2 [(2)] | 0.081
2 | COC(=O)c1nn(-c2ccc(C(=O)NCc3cc(C(=N)N)ccc3O)cc2C(F)(F)F)c2c1CCC2 [(9)] | 0.024
3 | CNC(=O)c1nn(-c2ccc(C(=O)NCc3cc(C(=N)N)ccc3O)cc2C(F)(F)F)c2c1CCC2 [(5)] | 0.016
4 | Cc1cc(NC(=O)Cc2cc(C(=N)N)ccc2O)ccc1-n1c(N2CCCC2)nc2ccccc21 [(1)] | 0.14
5 | N=C(N)c1ccc(O)c(CNC(=O)c2ccc(-n3nc(CN)c4c3CCC4)c(C(F)(F)F)c2)c1 [(6)] | 0.007
6 | CCOC(=O)CC(NC(=O)c1ccc(-n2cnc3c2CCCC3)c(C(F)(F)F)c1)c1cccc(C(=N)N)c1 (stereo not drawn) [(8)] | 0.028
7 | CCOC(=O)CC(NC(=O)c1ccc(-n2nc(CN)c3c2CCC3)c(C(F)(F)F)c1)c1cccc(C(=N)N)c1 (stereo not drawn) [(7)] | 0.0075
8 | Cc1nn(-c2ccc(C(=O)NCc3cc(C(=N)N)ccc3O)cc2C(F)(F)F)c2c1CCC2 [(4)] | 0.015
9 | Cc1cc(NC(=O)Cc2cc(C(=N)N)ccc2O)ccc1-c1ncnc2c1CCC2 [(3)] | 0.062
